# In US20210221866A1, “PROTEASE-RESISTANT LIPIDATED GLP-1 ANALOGS” (MEDIMMUNE LIMITED, priority 2015, published 2021):
# Numbered stars: 1 amine (or outer) side, 2 acyl side, 3 side chain; on linkers, the order of the positions; unused ones are H or OH. Square brackets hold non-standard residues; d marks the D form. Side chains are listed from the residue outwards. Peptide text beside a SMILES is read from it. * marks the point of attachment. C18 diacid = O=C(O)CCCCCCCCCCCCCCCCC(=O)*; γGlu = O=C(O)[C@H](CCC(=O)[*:2])N[*:1]; Palmitoyl = CCCCCCCCCCCCCCCC(=O)*; αMeF = C[C@](N)(Cc1ccccc1)C(=O)O; αMeK = C[C@](N)(CCCCN)C(=O)O; αMeS = C[C@](N)(CO)C(=O)O; AEEA = NCCOCCOCC(=O)O; Aib = CC(C)(N)C(=O)O
# Columns and labels:
# [1] = biological target: porcine pancreatic trypsin (Sus scrofa, UniProt P00761); test: Proteolytic resistance to trypsin (% remaining intact peptide, RP-HPLC AUC); format: in vitro ADME; conditions: t = 0; 37° C., pH 7.8
# Procedure: Trypsin: Lyophilized porcine pancreatic trypsin (Sigma: T1426) was reconstituted to afford a solution of 100 μg/mL (˜300 units/mL) in assay buffer (50 mM Tris, 10 mM CaCl2), 150 mM NaCl, 1 mM HCl, adjusted to pH 7.8) to give the enzyme stock solution. […] Ratio enzyme (units):peptide (μmoles) ˜1:11. […] Ratio enzyme (units):peptide (μ moles) ˜1.2:1.
# Lyophilized porcine pancreatic trypsin (Sigma: T7409) was reconstituted to 200 μg/mL (˜300 units/mL) in assay buffer (50 mM Tris, 10 mM CaCl2), 150 mM NaCl, 1 mM HCl, adjusted to pH 7.8) to give the enzyme stock solution. […] 15 μL aliquots (˜15 μg initial peptide) of the peptide-enzyme mixture were periodically withdrawn (t=0, 30 mins, 1 hr, 2 hr, 4 hr, 8 hr, 24 hr) and quenched immediately by addition to an equal volume (15 μL) of 5% TFA (v/v) in 1:1 water/acetonitrile to arrest proteolytic activity. 20 μL aliquots (˜10 μg initial peptide) were analysed by LC/MS and/or analytical RP-HPLC as follows: LC/MS method: Agilent Polaris C8-A column (4.6×100 mm, 3 micron) eluted with a linear binary gradient of 10-90% MeCN (0.1% TFA v/v) in water (0.1% TFA v/v) over 30 mins at 1.5 mL min^−1 at ambient temperature with detection by both UV absorption at 210 nm and ionization using a Waters 3100 mass detector (ESI^+ mode). Peptide fragments deriving from enzymatic hydrolysis were identified by molecular weight, allowing location of the site of cleavage. Analytical RP-HPLC method: Agilent Polaris C8-A column (4.6×100 mm, 3 micron) eluted with a linear binary gradient of 10-90% MeCN (0.1% TFA v/v) in water (0.1% TFA v/v) over either 10 or 15 mins at 1.5 mL min^−1 at 40° C. with detection by UV absorption at 210 nm. Manual integration (AUC) allowed estimation of remaining intact peptide over the time course of the experiment.
# Lyophilized porcine pancreatic trypsin (Sigma: T7409) was reconstituted to 200 μg/mL (˜300 units/mL) in assay buffer (50 mM Tris, 10 mM CaCl2), 150 mM NaCl, 1 mM HCl, adjusted to pH 7.8) to give the enzyme stock solution. […] 25 μL aliquots (˜17 μg initial peptide) of the peptide-enzyme mixture were periodically withdrawn (t=0, 30 mins, 1 hr, 2 hr, 4 hr, 8 hr, 24 hr) and quenched immediately by addition to an equal volume (25 μL) of 5% TFA (v/v) in 1:1 water/acetonitrile to arrest proteolytic activity. 25 μL aliquots (˜8 μg initial peptide) were analysed by LC/MS and/or analytical RP-HPLC as follows: LC/MS method: Agilent Polaris C8-A column (4.6×100 mm, 3 micron) eluted with a linear binary gradient of 10-90% MeCN (0.1% TFA v/v) in water (0.1% TFA v/v) over 30 mins at 1.5 mL min^−1 at ambient temperature with detection by both UV absorption at 210 nm and ionization using a Waters 3100 mass detector (ESI^+ mode). Peptide fragments deriving from enzymatic hydrolysis were identified by molecular weight, allowing location of the site of cleavage. Analytical RP-HPLC method: Agilent Polaris C8-A column (4.6×100 mm, 3 micron) eluted with a linear binary gradient of 10-90% MeCN (0.1% TFA v/v) in water (0.1% TFA v/v) over either 10 or 15 mins at 1.5 mL min^−1 at 40° C. with detection by UV absorption at 210 nm. Manual integration (AUC) allowed estimation of remaining intact peptide over the time course of the experiment.
# recombinant Neprilysin = biological target: T1, recombinant Neprilysin (Homo sapiens, UniProt P08473); test: Proteolytic resistance to neprilysin (% remaining peptide, RP-HPLC AUC); format: in vitro ADME; conditions: t = 0 (baseline); 37° C., pH 8.3; enzyme:peptide ~1:33 for non-lipidated, ~1:2.5 for lipidated peptides
# T1 construct: purchased R&D Systems 1182-ZNC-010
# Procedure: Ratio enzyme (units):peptide (moles) ˜1:33. […] Ratio enzyme (units):peptide (moles) ˜1:2.5.
# 15 μL aliquots (˜15 ng initial peptide) of the peptide-enzyme mixture were periodically withdrawn (t=0, 30 mins, 1 hr, 2 hr, 4 hr, 8 hr, 24 hr) and quenched immediately by addition to an equal volume (15 μL) of 5% TFA (v/v) in 1:1 water/acetonitrile to arrest proteolytic activity. 20 μL aliquots (˜10 ng initial peptide) were analyzed by LC/MS and/or analytical RP-HPLC as follows: LC/MS method: Agilent Polaris C8-A column (4.6×100 mm, 3 micron) eluted with a linear binary gradient of 10-90% MeCN (0.1% TFA v/v) in water (0.1% TFA v/v) over 30 mins at 1.5 mL min-1 at ambient temperature with detection by both UV absorption at 210 nm and ionization using a Waters 3100 mass detector (ESI+ mode). Peptide fragments deriving from enzymatic hydrolysis were identified by molecular weight, allowing location of the site of cleavage. Analytical RP-HPLC method: Agilent Polaris C8-A column (4.6×100 mm, 3 micron) eluted with a linear binary gradient of 10-90% MeCN (0.1% TFA v/v) in water (0.1% TFA v/v) over either 10 or 15 mins at 1.5 mL min^−1 at 40° C. with detection by UV absorption at 210 nm. Manual integration (AUC) allowed estimation of remaining intact peptide over the time course of the experiment.
# 25 μL aliquots (˜6 μg initial peptide) were analyzed by LC/MS and/or analytical RP-HPLC as follows: LC/MS method: Agilent Polaris C8-A column (4.6×100 mm, 3 micron) eluted with a linear binary gradient of 10-90% MeCN (0.1% TFA v/v) in water (0.1% TFA v/v) over 30 mins at 1.5 mL min^−1 at ambient temperature with detection by both UV absorption at 210 nm and ionization using a Waters 3100 mass detector (ESI^+ mode). Peptide fragments deriving from enzymatic hydrolysis were identified by molecular weight, allowing location of the site of cleavage. Analytical RP-HPLC method: Agilent Polaris C8-A column (4.6×100 mm, 3 micron) eluted with a linear binary gradient of 10-90% MeCN (0.1% TFA v/v) in water (0.1% TFA v/v) over either 10 or 15 mins at 1.5 mL min^−1 at 40° C. with detection by UV absorption at 210 nm. Manual integration (AUC) allowed estimation of remaining intact peptide over the time course of the experiment.
# [2] = biological target: T2, porcine pancreatic pepsin (Sus scrofa, UniProt P00791); test: Proteolytic resistance to pepsin (% remaining intact peptide, RP-HPLC AUC); format: in vitro ADME; conditions: t = 0; 37° C., pH 2.0
# T2 construct: purchased Sigma P7012
# Procedure: Pepsin: Lyophilized porcine pancreatic pepsin (Sigma: P7012) was reconstituted to afford a solution of 200 μg/mL (˜500 units/mL) in assay buffer (0.1 M HCl, pH 2.0) to give the enzyme stock solution. […] Ratio enzyme (units):peptide (moles) ˜1:6. […] Ratio enzyme (units):peptide (μmoles) ˜2:1.
# Lyophilized porcine pancreatic pepsin (Sigma: P7012) was reconstituted to […] (˜500 units/mL) in assay buffer ([…], pH 2.0) to give the enzyme stock solution.
# [3] = Proteolytic resistance to α-chymotrypsin (% remaining intact peptide, RP-HPLC AUC); conditions: recombinant α-chymotrypsin in assay buffer, pH 7.8
# Procedure: (§1) Ratio enzyme (units):peptide (μmoles) ˜1:33. […] Ratio enzyme (units):peptide (μmoles) ˜1:2.5.
# (§2) 15 μL aliquots (˜15 μg initial peptide) of the peptide-enzyme mixture are periodically withdrawn (t=0, 30 mins, 1 hr, 2 hr, 4 hr, 8 hr, 24 hr) and quenched immediately by addition to an equal volume (15 μL) of 5% TFA (v/v) in 1:1 water/acetonitrile to arrest proteolytic activity. 20 μL aliquots (˜10 μg initial peptide) are analysed by LC/MS and/or analytical RP-HPLC as follows: LC/MS method: Agilent Polaris C8-A column (4.6×100 mm, 3 micron) elutes with a linear binary gradient of 10-90% MeCN (0.1% TFA v/v) in water (0.1% TFA v/v) over 30 mins at 1.5 mL min^−1 at ambient temperature with detection by both UV absorption at 210 nm and ionization using a Waters 3100 mass detector (ESI^+ mode). Peptide fragments deriving from enzymatic hydrolysis are identified by molecular weight, allowing location of the site of cleavage. Analytical RP-HPLC method: Agilent Polaris C8-A column (4.6×100 mm, 3 micron) elutes with a linear binary gradient of 10-90% MeCN (0.1% TFA v/v) in water (0.1% TFA v/v) over either 10 or 15 mins at 1.5 mL min^−1 at 40° C. with detection by UV absorption at 210 nm. Manual integration (AUC) allows estimation of remaining intact peptide over the time course of the experiment.
# (§3) 25 μL aliquots (˜6 μg initial peptide) are analysed by LC/MS and/or analytical RP-HPLC as follows: LC/MS method: Agilent Polaris C8-A column (4.6×100 mm, 3 micron) elutes with a linear binary gradient of 10-90% MeCN (0.1% TFA v/v) in water (0.1% TFA v/v) over 30 mins at 1.5 mL min^−1 at ambient temperature with detection by both UV absorption at 210 nm and ionization using a Waters 3100 mass detector (ESI±mode). Peptide fragments deriving from enzymatic hydrolysis are identified by molecular weight, allowing location of the site of cleavage. Analytical RP-HPLC method: Agilent Polaris C8-A column (4.6×100 mm, 3 micron) elutes with a linear binary gradient of 10-90% MeCN (0.1% TFA v/v) in water (0.1% TFA v/v) over either 10 or 15 mins at 1.5 mL min^−1 at 40° C. with detection by UV absorption at 210 nm. Manual integration (AUC) allows estimation of remaining intact peptide over the time course of the experiment.
# [4] = system: recombinant α-chymotrypsin; test: as above; conditions: t = 0; 37° C., pH 7.8
# Procedure: as §1, §2, §3
# porcine pancreatic trypsin, sequence (P00761 9-231): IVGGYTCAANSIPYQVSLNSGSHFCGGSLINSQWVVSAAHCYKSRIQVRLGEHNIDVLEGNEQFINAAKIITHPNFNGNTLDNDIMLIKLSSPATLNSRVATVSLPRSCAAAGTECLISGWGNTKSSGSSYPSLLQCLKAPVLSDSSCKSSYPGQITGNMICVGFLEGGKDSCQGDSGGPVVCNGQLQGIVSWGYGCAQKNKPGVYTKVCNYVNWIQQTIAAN
# T2 sequence (P00791 60-385): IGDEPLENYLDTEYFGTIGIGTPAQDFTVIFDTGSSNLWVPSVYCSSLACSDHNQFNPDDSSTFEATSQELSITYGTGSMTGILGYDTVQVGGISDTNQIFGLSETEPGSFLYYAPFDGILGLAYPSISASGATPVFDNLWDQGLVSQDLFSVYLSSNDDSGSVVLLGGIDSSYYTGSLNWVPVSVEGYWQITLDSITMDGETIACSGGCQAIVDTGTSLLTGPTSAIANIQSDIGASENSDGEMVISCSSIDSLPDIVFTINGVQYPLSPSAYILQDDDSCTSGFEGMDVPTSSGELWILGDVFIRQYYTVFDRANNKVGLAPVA
# T1 sequence (P08473 whole entry): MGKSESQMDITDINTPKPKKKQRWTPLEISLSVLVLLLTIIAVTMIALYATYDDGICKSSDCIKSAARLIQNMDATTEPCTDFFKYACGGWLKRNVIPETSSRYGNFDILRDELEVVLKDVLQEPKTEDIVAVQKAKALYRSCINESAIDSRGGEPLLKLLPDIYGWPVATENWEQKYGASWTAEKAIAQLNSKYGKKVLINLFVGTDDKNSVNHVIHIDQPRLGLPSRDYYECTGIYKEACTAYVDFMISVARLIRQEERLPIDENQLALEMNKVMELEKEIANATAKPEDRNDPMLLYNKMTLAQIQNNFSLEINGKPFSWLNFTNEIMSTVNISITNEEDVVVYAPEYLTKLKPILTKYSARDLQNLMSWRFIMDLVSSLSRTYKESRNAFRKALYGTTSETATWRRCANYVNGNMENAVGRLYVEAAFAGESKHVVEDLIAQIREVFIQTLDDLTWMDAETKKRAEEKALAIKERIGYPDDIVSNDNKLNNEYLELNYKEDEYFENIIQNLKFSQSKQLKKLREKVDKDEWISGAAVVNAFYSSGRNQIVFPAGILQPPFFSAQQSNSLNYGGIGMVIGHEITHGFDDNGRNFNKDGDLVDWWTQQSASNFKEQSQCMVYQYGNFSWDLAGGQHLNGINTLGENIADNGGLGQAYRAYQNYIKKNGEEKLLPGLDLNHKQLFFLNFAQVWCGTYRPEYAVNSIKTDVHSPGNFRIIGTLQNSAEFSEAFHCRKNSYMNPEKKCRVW
Structure (SMILES),Percentage remaining intact peptide (AUC by RP-HPLC) upon incubation with trypsin [1],"Percentage remaining peptide (AUC at specified time-point by RP-HPLC) upon incubation with neprilysin, t = 0 (recombinant Neprilysin)",Percentage remaining intact peptide (AUC by RP-HPLC) upon incubation with pepsin [2],remaining at 0.5 h [3],remaining at 1 h [3],remaining at 2 h [3],remaining at 4 h [3],remaining at 8 h [3],remaining at 24 h [3],Percentage remaining intact peptide (AUC by RP-HPLC) upon incubation with α-chymotrypsin [4]
CC[C@H](C)[C@H](NC(=O)[C@H](Cc1ccccc1)NC(=O)[C@H](CCC(=O)O)NC(=O)[C@H](CCCCNC(=O)COCCOCCNC(=O)COCCOCCNC(=O)CC[C@H](NC(=O)CCCCCCCCCCCCCCCCC(=O)O)C(=O)O)NC(=O)[C@H](C)NC(=O)[C@H](C)NC(=O)[C@H](CCC(=O)O)NC(=O)CNC(=O)[C@H](CCC(=O)O)NC(=O)[C@H](CC(C)C)NC(=O)[C@](C)(Cc1ccccc1)NC(=O)[C@H](CO)NC(=O)[C@](C)(CO)NC(=O)[C@@H](NC(=O)[C@H](CC(=O)O)NC(=O)[C@H](CO)NC(=O)[C@@H](NC(=O)[C@](C)(Cc1ccccc1)NC(=O)[C@H](CO)NC(=O)CNC(=O)[C@H](CCC(=O)O)NC(=O)C(C)(C)NC(=O)[C@@H](N)Cc1c[nH]cn1)[C@@H](C)O)C(C)C)C(=O)N[C@@H](C)C(=O)N[C@@](C)(Cc1ccccc1)C(=O)N[C@H](C(=O)N[C@H](C(=O)N[C@@](C)(CCCCN)C(=O)NCC(=O)NCC(N)=O)C(C)C)C(C)C [compound 48],100.0%,100%,100%,97.8%,94.6%,90.9%,88.8%,89.4%,86.4%,100%
CC[C@H](C)[C@H](NC(=O)[C@H](Cc1ccccc1)NC(=O)[C@H](CCC(=O)O)NC(=O)[C@](C)(CCCCN)NC(=O)[C@H](C)NC(=O)[C@H](C)NC(=O)[C@H](CCC(=O)O)NC(=O)CNC(=O)[C@H](CCC(=O)O)NC(=O)[C@H](CC(C)C)NC(=O)[C@](C)(Cc1ccccc1)NC(=O)[C@H](CO)NC(=O)[C@](C)(CO)NC(=O)[C@@H](NC(=O)[C@H](CC(=O)O)NC(=O)[C@H](CO)NC(=O)[C@@H](NC(=O)[C@](C)(Cc1ccccc1)NC(=O)[C@H](CO)NC(=O)CNC(=O)[C@H](CCC(=O)O)NC(=O)C(C)(C)NC(=O)[C@@H](N)Cc1c[nH]cn1)[C@@H](C)O)C(C)C)C(=O)N[C@@H](CCCCNC(=O)COCCOCCNC(=O)COCCOCCNC(=O)CC[C@H](NC(=O)CCCCCCCCCCCCCCCCC(=O)O)C(=O)O)C(=O)N[C@@H](Cc1c[nH]c2ccccc12)C(=O)N[C@H](C(=O)N[C@H](C(=O)N[C@@H](CCC(=O)O)C(=O)NCC(=O)NCC(N)=O)C(C)C)C(C)C [compound 68] (H-H[Aib]EGS[αMeF]TSDV[αMeS]S[αMeF]LEGEAA[αMeK]EFIK([AEEA-AEEA-γGlu-C18 diacid])WVVEGG-NH2; N-terminus assumed),100.0%,100%,100%,–,–,–,–,–,–,–
CC[C@H](C)[C@H](NC(=O)[C@](C)(Cc1ccccc1)NC(=O)[C@H](CCC(=O)O)NC(=O)[C@](C)(CCCCN)NC(=O)[C@H](C)NC(=O)[C@H](C)NC(=O)[C@H](CCC(=O)O)NC(=O)CNC(=O)[C@H](CCC(=O)O)NC(=O)[C@H](CC(C)C)NC(=O)[C@](C)(Cc1ccccc1)NC(=O)[C@H](CO)NC(=O)[C@](C)(CO)NC(=O)[C@@H](NC(=O)[C@H](CC(=O)O)NC(=O)[C@H](CO)NC(=O)[C@@H](NC(=O)[C@](C)(Cc1ccccc1)NC(=O)[C@H](CO)NC(=O)CNC(=O)[C@H](CCC(=O)O)NC(=O)C(C)(C)NC(=O)[C@@H](N)Cc1c[nH]cn1)[C@@H](C)O)C(C)C)C(=O)N[C@@H](C)C(=O)N[C@@](C)(Cc1ccccc1)C(=O)N[C@H](C(=O)N[C@H](C(=O)N[C@@](C)(CCCCN)C(=O)NCC(=O)NCC(N)=O)C(C)C)C(C)C [compound 17],100%,100%,100%,91.6%,87.2%,86.3%,86.6%,87.7%,82.1%,100%
CCCCCCCCCCCCCCCC(=O)NCCCC[C@H](NC(=O)CNC(=O)CNC(=O)[C@](C)(CCCCN)NC(=O)[C@@H](NC(=O)[C@@H](NC(=O)[C@](C)(Cc1ccccc1)NC(=O)[C@H](C)NC(=O)[C@@H](NC(=O)[C@](C)(Cc1ccccc1)NC(=O)[C@H](CCC(=O)O)NC(=O)[C@](C)(CCCCN)NC(=O)[C@H](C)NC(=O)[C@H](C)NC(=O)[C@H](CCC(N)=O)NC(=O)CNC(=O)[C@H](CCC(=O)O)NC(=O)[C@H](CC(C)C)NC(=O)[C@](C)(Cc1ccccc1)NC(=O)[C@H](CO)NC(=O)[C@H](CO)NC(=O)[C@@H](NC(=O)[C@H](CC(=O)O)NC(=O)[C@H](CO)NC(=O)[C@@H](NC(=O)[C@](C)(Cc1ccccc1)NC(=O)[C@H](CO)NC(=O)CNC(=O)[C@H](CCC(=O)O)NC(=O)C(C)(C)NC(=O)[C@@H](N)Cc1c[nH]cn1)[C@@H](C)O)C(C)C)[C@@H](C)CC)C(C)C)C(C)C)C(N)=O [compound 489] (H-H[Aib]EGS[αMeF]TSDVSS[αMeF]LEGQAA[αMeK]E[αMeF]IA[αMeF]VV[αMeK]GGK(Palmitoyl)-NH2),100%,100%,100%,–,–,–,–,–,–,–
